MIC and IC80 data for 16 compounds are collected here from US20150210729A1, “MACROLIDE DERIVATIVES, PREPARATION THEREOF AND THERAPEUTIC USE THEREOF” (priority 2012, published 2015).

In brackets after ≈: the same amount, converted by molar mass.

The first assay has as its system Mycobacterium tuberculosis H37Rv. The assay is described as follows: Alamar blue (MABA) test, MIC on Mycobacterium tuberculosis H37Rv. It is filed as cell-based. The note with it: H37RV, read-out: MIC (μM) MTb H37Rv. Background: Alamar Blue is a resazurin reagent that responds to reducing activity.
In the case of `CON=C1C[C@@H](C)O[C@@H](O[C@@H]2[C@@H](C)[C@H](O[C@H]3C[C@@H](C)N(C)C[C@H](C)O3)[C@@H](C)C(=O)O[C@H](C(C)CO[C@@H]3O[C@H](C)[C@@H](O)[C@@H](OC)[C@H]3OC)[C@H](C)[C@@H](OC(=O)CC(C)C)[C@@H](C)C(=O)[C@@](C)(OC(=O)N(C)C)C[C@@H]2C)[C@@H]1O` (stereo partly drawn) [Compound 3, (2R,3S,4R,5R,7S,9S,10S,11R,12S,13R)-7-[(dimethylcarbamoyl)oxy]-2-(1-{[(2R,3R,4R,5R,6R)-5-hydroxy-3,4-dimethoxy-6-methyltetrahydro-2H-pyran-2-yl]oxy}propan-2-yl)-10-{[(2S,3R,6R)-3-hydroxy-4-(methoxyimino)-6-methyltetrahydro-2H-pyran-2-yl]oxy}-3,5,7,9,11,13-hexamethyl-6,14-dioxo-12-{[(2S,5R,7R)-2,4,5-trimethyl-1,4-oxazepan-7-yl]oxy}oxacyclotetradecan-4-yl 3-methylbutanoate], the MIC is 1.27 µM (≈ 1.35 µg/mL).

The assay is the same for the next values; noted with them: minimum inhibitory concentration, Alamar blue, strain H37Rv, read-out: MIC (μM) MTb H37Rv.
With `CON=C1C[C@@H](C)O[C@@H](O[C@@H]2[C@@H](C)[C@H](O[C@H]3C[C@H](C)N(Cc4ccccc4)C[C@H](C)O3)[C@@H](C)C(=O)OC([C@@H](C)CO[C@@H]3O[C@H](C)[C@@H](O)[C@@H](OC)[C@H]3OC)[C@H](C)[C@@H](OC(=O)CC(C)C)[C@@H](C)C(=O)[C@@](C)(OC(=O)NCCNC(=O)c3cnc(O)cn3)C[C@@H]2C)[C@@H]1O` (stereo partly shown) [Compound 33], the MIC came out at 0.35 µM (≈ 0.446 µg/mL).

On to `CON=C1C[C@@H](C)O[C@@H](O[C@@H]2[C@@H](C)[C@H](O[C@H]3C[C@@H](C)N(C)C[C@H](C)O3)[C@@H](C)C(=O)O[C@H](C(C)CO[C@@H]3O[C@H](C)[C@@H](O)[C@@H](OC)[C@H]3OC)[C@H](C)[C@@H](OC(=O)CC(C)C)[C@@H](C)C(=O)[C@@](C)(OC(=O)NCc3ccccc3)C[C@@H]2C)[C@@H]1O` (single isomer, unassigned) [Compound 7-a], for which the MIC came out at 0.54 µM (≈ 0.606 µg/mL). For the compound `CON=C1C[C@@H](C)O[C@@H](O[C@@H]2[C@@H](C)[C@H](O[C@H]3C[C@H](C)N(CCc4ccncc4)C[C@H](C)O3)[C@@H](C)C(=O)OC([C@@H](C)CO[C@@H]3O[C@H](C)[C@@H](O)[C@@H](OC)[C@H]3OC)[C@H](C)[C@@H](OC(=O)CC(C)C)[C@@H](C)C(=O)[C@@](C)(OC(=O)NCc3ccccc3)C[C@@H]2C)[C@@H]1O` (stereo partly shown) [Compound 24], the MIC was determined as 0.48 µM (≈ 0.582 µg/mL).

Take `CON=C1C[C@@H](C)O[C@@H](O[C@@H]2[C@@H](C)[C@H](O[C@H]3C[C@@H](C)N(C)C[C@H](C)O3)[C@@H](C)C(=O)O[C@H](C(C)CO[C@@H]3O[C@H](C)[C@@H](O)[C@@H](OC)[C@H]3OC)[C@H](C)[C@@H](OC(=O)CC(C)C)[C@@H](C)C(=O)[C@@](C)(OC(=O)NC(C)(C)CNS(=O)(=O)c3ccccc3[N+](=O)[O-])C[C@@H]2C)[C@@H]1O` (single isomer, unassigned) [Compound 5-a]: the MIC is 0.34 µM (≈ 0.438 µg/mL). In the case of `CON=C1C[C@@H](C)O[C@@H](O[C@@H]2[C@@H](C)[C@H](O[C@H]3C[C@H](C)N(C)C[C@H](C)O3)[C@@H](C)C(=O)O[C@H](C(C)CO[C@@H]3O[C@H](C)[C@@H](O)[C@@H](OC)[C@H]3OC)[C@H](C)[C@@H](OC(=O)CC(C)C)[C@@H](C)C(=O)[C@@](C)(OC(=O)NCc3ccccc3)C[C@@H]2C)[C@@H]1O` (single isomer, unassigned) [Compound 7-b], the MIC was determined as 0.52 µM (≈ 0.584 µg/mL). Consider `CON=C1C[C@@H](C)O[C@@H](O[C@@H]2[C@@H](C)[C@H](O[C@H]3C[C@@H](C)NC[C@H](C)O3)[C@@H](C)C(=O)O[C@H](C(C)CO[C@@H]3O[C@H](C)[C@@H](O)[C@@H](OC)[C@H]3OC)[C@H](C)[C@@H](OC(=O)CC(C)C)[C@@H](C)C(=O)[C@@](C)(OC(=O)NCc3ccccc3)C[C@@H]2C)[C@@H]1O` (single isomer, unassigned) [Compound 8-a], for which the MIC stood at 0.56 µM (≈ 0.621 µg/mL). Take `CON=C1C[C@@H](C)O[C@@H](O[C@@H]2[C@@H](C)[C@H](O[C@H]3C[C@H](C)N(C)C[C@H](C)O3)[C@@H](C)C(=O)O[C@H](C(C)CO[C@@H]3O[C@H](C)[C@@H](O)[C@@H](OC)[C@H]3OC)[C@H](C)[C@@H](OC(=O)CC(C)C)[C@@H](C)C(=O)[C@@](C)(OC(=O)NC(C)(C)CNS(=O)(=O)c3ccccc3[N+](=O)[O-])C[C@@H]2C)[C@@H]1O` (single isomer, unassigned) [Compound 5-b]: the MIC turned out to be 0.53 µM (≈ 0.683 µg/mL). For `CON=C1C[C@@H](C)O[C@@H](O[C@@H]2[C@@H](C)[C@H](O[C@H]3CC(C)N(CCF)C[C@H](C)O3)[C@@H](C)C(=O)O[C@H](C(C)CO[C@@H]3O[C@H](C)[C@@H](O)[C@@H](OC)[C@H]3OC)[C@H](C)[C@@H](OC(=O)CC(C)C)[C@@H](C)C(=O)[C@@](C)(OC(=O)NCc3ccccc3)C[C@@H]2C)[C@@H]1O` (stereo partly drawn) [Compound 6, (2R,3S,4R,5R,7S,9S,10S,11R,12S,13R)-7-[(benzylcarbamoyl)oxy]-12-{[(2S,7R)-4-(2-fluoroethyl)-2,5-dimethyl-1,4-oxazepan-7-yl]oxy}-2-(1-{[(2R,3R,4R,5R,6R)-5-hydroxy-3,4-dimethoxy-6-methyltetrahydro-2H-pyran-2-yl]oxy}propan-2-yl)-10-{[(2S,3R,6R)-3-hydroxy-4-(methoxyimino)-6-methyltetrahydro-2H-pyran-2-yl]oxy}-3,5,7,9,11,13-hexamethyl-6,14-dioxooxacyclotetradecan-4-yl 3-methylbutanoate], the MIC was 0.91 µM (≈ 1.05 µg/mL). With `CON=C1C[C@@H](C)O[C@@H](O[C@@H]2[C@@H](C)[C@H](O[C@H]3C[C@@H](C)N(CC(C)(C)O)C[C@H](C)O3)[C@@H](C)C(=O)O[C@H]([C@@H](C)CO[C@@H]3O[C@H](C)[C@@H](O)[C@@H](OC)[C@H]3OC)[C@H](C)[C@@H](OC(=O)CC(C)C)[C@@H](C)C(=O)[C@@](C)(OC(=O)NCc3ccccc3)C[C@@H]2C)[C@@H]1O` [Compound 12], the MIC came to 0.6 µM (≈ 0.708 µg/mL). Take `CON=C1C[C@@H](C)O[C@@H](O[C@@H]2[C@@H](C)[C@H](O[C@H]3CC(C)N(CC(=O)Nc4ccc5ccc(C)nc5n4)C[C@H](C)O3)[C@@H](C)C(=O)O[C@H]([C@@H](C)CO[C@@H]3O[C@H](C)[C@@H](O)[C@@H](OC)[C@H]3OC)[C@H](C)[C@@H](OC(=O)CC(C)C)[C@@H](C)C(=O)[C@@](C)(OC(=O)NCc3ccccc3)C[C@@H]2C)[C@@H]1O` (stereo partly shown) [Compound 51]: the MIC was found to be 0.29 µM (≈ 0.379 µg/mL). Still for that read-out and setting: the same measure for `CON=C1C[C@@H](C)O[C@@H](O[C@@H]2[C@@H](C)[C@H](O[C@H]3C[C@@H](C)N(C)C[C@H](C)O3)[C@@H](C)C(=O)O[C@H](C(C)CO[C@@H]3O[C@H](C)[C@@H](O)[C@@H](OC)[C@H]3OC)[C@H](C)[C@@H](OC(=O)CC(C)C)[C@@H](C)C(=O)[C@@](C)(O)C[C@@H]2C)[C@@H]1O` (single isomer, unassigned) [Compound 1-a]: 2.05 µM (≈ 2.03 µg/mL); for `CON=C1C[C@@H](C)O[C@@H](O[C@@H]2[C@@H](C)[C@H](O[C@H]3C[C@H](C)N(CC(C)(C)O)C[C@H](C)O3)[C@@H](C)C(=O)O[C@H]([C@@H](C)CO[C@@H]3O[C@H](C)[C@@H](O)[C@@H](OC)[C@H]3OC)[C@H](C)[C@@H](OC(=O)CC(C)C)[C@@H](C)C(=O)[C@@](C)(OC(=O)NCc3ccccc3)C[C@@H]2C)[C@@H]1O` [Compound 11]: 0.63 µM (≈ 0.744 µg/mL). Still for that read-out and setting: for `CON=C1C[C@@H](C)O[C@@H](O[C@@H]2[C@@H](C)[C@H](O[C@H]3C[C@@H](C)N(C)CC(C)O3)[C@@H](C)C(=O)O[C@H]([C@@H](C)CO[C@@H]3O[C@H](C)[C@@H](O)[C@@H](OC)[C@H]3OC)[C@H](C)[C@@H](OC(=O)CC(C)C)[C@@H](C)C(=O)[C@@](C)(OC(=O)NC(C)(C)CNS(=O)(=O)c3ccccc3)C[C@@H]2C)[C@@H]1O` (stereo partly shown) [Compound 70] the value was 0.46 µM (≈ 0.572 µg/mL); for `CON=C1C[C@@H](C)O[C@@H](O[C@@H]2[C@@H](C)[C@H](O[C@H]3CC(C)N(C)C[C@H](C)O3)[C@@H](C)C(=O)O[C@H](C(C)CO[C@@H]3O[C@H](C)[C@@H](O)[C@@H](OC)[C@H]3OC)[C@H](C)[C@@H](OC(=O)CC(C)C)[C@@H](C)C(=O)[C@@](C)(OC(=O)NC(C)(C)CNS(=O)(=O)c3cn[nH]c3[N+](=O)[O-])C[C@@H]2C)[C@@H]1O` (stereo partly shown) [Compound 4], 0.21 µM (≈ 0.268 µg/mL).

A further assay relates to Streptococcus pneumoniae. The assay is described as follows: ATP bioluminescence test, inhibition of bacterial growth of Streptococcus pneumoniae (IC80). It is filed as cell-based. Conditions: 80% inhibition of bacterial growth, ATP/luciferase readout, read-out: IC80 (μM) S. pneumoniae. The procedure:
Measurement of the Inhibitory Activity (IC80) of the Compounds According to the Invention Towards Streptococcus pneumoniae
The test used is a bioluminescence test, the aim of which is to measure the inhibition of bacterial growth of Streptococcus pneumoniae by quantification of the amount of adenosine triphosphate (ATP). Specifically, ATP is a major and mandatory energy intermediate of very many reactions of cell metabolism which characterizes live media.
ATP quantification is performed at the end of the test by using an enzyme, luciferase, which, in the presence of ATP and of a specific substrate, luciferin, produces quantifiable light.
Thus, in the presence of luciferin and luciferase at […] concentrations, the value obtained in relative light units (RLU) will make it possible, by means of a calibration, to estimate the amount of ATP and thus deduce the number of live bacteria at the end of the incubation period.
Thus, the more the RLU value obtained at the end of the test tends towards zero, the more the product inhibits the total growth of bacteria.
The results (Table 3) are expressed in IC80.
In the case of `CON=C1C[C@@H](C)O[C@@H](O[C@@H]2[C@@H](C)[C@H](O[C@H]3C[C@H](C)N(Cc4ccccc4)C[C@H](C)O3)[C@@H](C)C(=O)OC([C@@H](C)CO[C@@H]3O[C@H](C)[C@@H](O)[C@@H](OC)[C@H]3OC)[C@H](C)[C@@H](OC(=O)CC(C)C)[C@@H](C)C(=O)[C@@](C)(OC(=O)NCCNC(=O)c3cnc(O)cn3)C[C@@H]2C)[C@@H]1O` (stereo partly shown) [Compound 33], the IC80 came out at 1.34 µM. Still for that read-out and setting: the same measure for `CON=C1C[C@@H](C)O[C@@H](O[C@@H]2[C@@H](C)[C@H](O[C@H]3C[C@H](C)N(CCc4ccncc4)C[C@H](C)O3)[C@@H](C)C(=O)OC([C@@H](C)CO[C@@H]3O[C@H](C)[C@@H](O)[C@@H](OC)[C@H]3OC)[C@H](C)[C@@H](OC(=O)CC(C)C)[C@@H](C)C(=O)[C@@](C)(OC(=O)NCc3ccccc3)C[C@@H]2C)[C@@H]1O` (stereo partly shown) [Compound 24]: 0.88 µM. As to `CON=C1C[C@@H](C)O[C@@H](O[C@@H]2[C@@H](C)[C@H](O[C@H]3C[C@@H](C)NC[C@H](C)O3)[C@@H](C)C(=O)O[C@H](C(C)CO[C@@H]3O[C@H](C)[C@@H](O)[C@@H](OC)[C@H]3OC)[C@H](C)[C@@H](OC(=O)CC(C)C)[C@@H](C)C(=O)[C@@](C)(OC(=O)NCc3ccccc3)C[C@@H]2C)[C@@H]1O` (single isomer, unassigned) [Compound 8-a], the IC80 is 1.84 µM.

The assay is the same for the next values; noted with them: read-out: IC80 (μM) S. pneumoniae.
Turning to `CN[C@H](CC(C)C)C(=O)N[C@H]1C(=O)N[C@@H](CC(N)=O)C(=O)N[C@H]2C(=O)N[C@H]3C(=O)N[C@H](C(=O)N[C@H](C(=O)O)c4cc(O)cc(O)c4-c4cc3ccc4O)[C@H](O)c3ccc(c(Cl)c3)Oc3cc2cc(c3O[C@@H]2O[C@H](CO)[C@@H](O)[C@H](O)[C@H]2O[C@H]2C[C@](C)(N)[C@H](O)[C@H](C)O2)Oc2ccc(cc2Cl)[C@H]1O` [vancomycin, reference compound], the IC80 was determined as 0.14 µM.

As usually defined, the MIC is the least concentration at which growth counts as inhibited. The IC80 is the concentration at which the effect reaches the 80% level.
